The NIST ThermoML archive (doi:10.1021/acs.jced.6b00542)

Test: xn = mol fraction of the nth substance listed
Settings: for speed of sound: 100 kPa, Frequency=3 MHz, Sing-around technique in a fixed-path interferometer; for speed of sound / viscosity / mass density: Liquid; for viscosity / mass density: 102 kPa; for viscosity: Concentric cylinders viscometry; for mass density: Vibrating tube method; for surface tension liquid-gas: 294.5 K, Pendant drop shape

CCCCc1ccccc1 [butylbenzene] + CCCCCCCCCCCCCCCC
Settings | mass density [kg/m3] | speed of sound [m/s] | viscosity [mPa·s]
293.15 K, x1 = 0.1586 | 780.89 | 1353.2 | 2.92
293.15 K, x1 = 0.2971 | 788.51 | 1350.1 | 2.5
293.15 K, x1 = 0.4067 | 795.49 | 1347.8 | 2.21
293.15 K, x1 = 0.5293 | 804.56 | 1346 | 1.91
293.15 K, x1 = 0.6278 | 813.07 | 1345 | 1.69
293.15 K, x1 = 0.7158 | 821.75 | 1345.1 | 1.52
293.15 K, x1 = 0.7981 | 831.1 | 1346.3 | 1.36
293.15 K, x1 = 0.8709 | 840.48 | 1347.8 | 1.23
293.15 K, x1 = 0.938 | 850.32 | 1350.4 | 1.12
293.15 K, x1 = 1 | 860.51 | 1353.7 | 1.05
303.15 K, x1 = 0.1586 | 773.89 | 1316.1 | 2.35
303.15 K, x1 = 0.2971 | 781.43 | 1313 | 2.05
303.15 K, x1 = 0.4067 | 788.33 | 1310.7 | 1.83
303.15 K, x1 = 0.5293 | 797.29 | 1308.8 | 1.6
303.15 K, x1 = 0.6278 | 805.7 | 1307.7 | 1.43
303.15 K, x1 = 0.7158 | 814.27 | 1307.6 | 1.29
303.15 K, x1 = 0.7981 | 823.49 | 1308.5 | 1.17
303.15 K, x1 = 0.8709 | 832.73 | 1309.7 | 1.06
303.15 K, x1 = 0.938 | 842.44 | 1312 | 0.976
303.15 K, x1 = 1 | 852.49 | 1314.9 | 0.91
313.15 K, x1 = 0.1586 | 766.88 | 1279.5 | 1.94
313.15 K, x1 = 0.2971 | 774.34 | 1276.4 | 1.71
313.15 K, x1 = 0.4067 | 781.16 | 1274.1 | 1.54
313.15 K, x1 = 0.5293 | 790 | 1272.1 | 1.36
313.15 K, x1 = 0.6278 | 798.3 | 1270.8 | 1.23
313.15 K, x1 = 0.7158 | 806.75 | 1270.5 | 1.11
313.15 K, x1 = 0.7981 | 815.84 | 1271.1 | 1.01
313.15 K, x1 = 0.8709 | 824.96 | 1272.1 | 0.932
313.15 K, x1 = 0.938 | 834.53 | 1274 | 0.859
313.15 K, x1 = 1 | 844.43 | 1276.6 | 0.801
323.15 K, x1 = 0.1586 | 759.88 | 1243.6 | 1.62
323.15 K, x1 = 0.2971 | 767.24 | 1240.4 | 1.44
323.15 K, x1 = 0.4067 | 773.97 | 1238 | 1.31
323.15 K, x1 = 0.5293 | 782.69 | 1235.9 | 1.17
323.15 K, x1 = 0.6278 | 790.88 | 1234.4 | 1.06
323.15 K, x1 = 0.7158 | 799.21 | 1233.9 | 0.972
323.15 K, x1 = 0.7981 | 808.17 | 1234.3 | 0.891
323.15 K, x1 = 0.8709 | 817.16 | 1235 | 0.822
323.15 K, x1 = 0.938 | 826.58 | 1236.6 | 0.761
323.15 K, x1 = 1 | 836.34 | 1238.7 | 0.713
333.15 K, x1 = 0.1586 | 752.86 | 1208.2 | 1.37
333.15 K, x1 = 0.2971 | 760.13 | 1204.9 | 1.24
333.15 K, x1 = 0.4067 | 766.76 | 1202.5 | 1.13
333.15 K, x1 = 0.5293 | 775.36 | 1200.2 | 1.02
333.15 K, x1 = 0.6278 | 783.43 | 1198.6 | 0.929
333.15 K, x1 = 0.7158 | 791.64 | 1197.8 | 0.856
333.15 K, x1 = 0.7981 | 800.47 | 1197.9 | 0.787
333.15 K, x1 = 0.8709 | 809.32 | 1198.3 | 0.731
333.15 K, x1 = 0.938 | 818.61 | 1199.6 | 0.68
333.15 K, x1 = 1 | 828.21 | 1201.4 | 0.636
343.15 K, x1 = 0.1586 | 745.8 | – | 1.18
343.15 K, x1 = 0.2971 | 752.9 | – | 1.07
343.15 K, x1 = 0.4067 | 759.5 | – | 0.986
343.15 K, x1 = 0.5293 | 767.9 | – | 0.893
343.15 K, x1 = 0.6278 | 775.9 | – | 0.821
343.15 K, x1 = 0.7158 | 783.9 | – | 0.757
343.15 K, x1 = 0.7981 | 792.7 | – | 0.702
343.15 K, x1 = 0.8709 | 801.4 | – | 0.653
343.15 K, x1 = 0.938 | 810.6 | – | 0.61
343.15 K, x1 = 1 | 819.9 | – | 0.571
353.15 K, x1 = 0.1586 | 738.8 | – | 1.03
353.15 K, x1 = 0.2971 | 745.8 | – | 0.939
353.15 K, x1 = 0.4067 | 752.3 | – | 0.868
353.15 K, x1 = 0.5293 | 760.5 | – | 0.792
353.15 K, x1 = 0.6278 | 768.4 | – | 0.731
353.15 K, x1 = 0.7158 | 776.2 | – | 0.677
353.15 K, x1 = 0.7981 | 784.9 | – | 0.63
353.15 K, x1 = 0.8709 | 793.5 | – | 0.588
353.15 K, x1 = 0.938 | 802.5 | – | 0.55
353.15 K, x1 = 1 | 811.7 | – | 0.516
363.15 K, x1 = 0.1586 | 731.6 | – | 0.91
363.15 K, x1 = 0.2971 | 738.6 | – | 0.833
363.15 K, x1 = 0.4067 | 744.9 | – | 0.773
363.15 K, x1 = 0.5293 | 753.1 | – | 0.708
363.15 K, x1 = 0.6278 | 760.8 | – | 0.656
363.15 K, x1 = 0.7158 | 768.5 | – | 0.61
363.15 K, x1 = 0.7981 | 777.1 | – | 0.569
363.15 K, x1 = 0.8709 | 785.4 | – | 0.532
363.15 K, x1 = 0.938 | 794.3 | – | 0.5
363.15 K, x1 = 1 | 803.4 | – | 0.469
373.15 K, x1 = 0.1586 | 724.5 | – | 0.811
373.15 K, x1 = 0.2971 | 731.3 | – | 0.746
373.15 K, x1 = 0.4067 | 737.5 | – | 0.695
373.15 K, x1 = 0.5293 | 745.5 | – | 0.639
373.15 K, x1 = 0.6278 | 753.1 | – | 0.594
373.15 K, x1 = 0.7158 | 760.8 | – | 0.553
373.15 K, x1 = 0.7981 | 769.1 | – | 0.517
373.15 K, x1 = 0.8709 | 777.5 | – | 0.484
373.15 K, x1 = 0.938 | 786.1 | – | 0.456
373.15 K, x1 = 1 | 795 | – | 0.43

Settings | surface tension liquid-gas [mN/m]
x1 = 0.1586 | 27.5
x1 = 0.2971 | 27.3
x1 = 0.4067 | 27.6
x1 = 0.5293 | 27.8
x1 = 0.6278 | 27.9
x1 = 0.7158 | 28
x1 = 0.7981 | 28.2
x1 = 0.8709 | 28.4
x1 = 0.938 | 28.7
